Experimental data published in PubChem BioAssay (NCI).
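Here, GI50 denotes the concentration required for 50% inhibition of growth. At the TGI there is no net growth.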

Tests used:
Assay in all cases: NCI anticancer screen, dose series, 384-well format
786-0 renal = system: 786-0 renal
A498 renal = system: A498 renal
A549 NSCLC = system: A549 NSCLC
ACHN renal = system: ACHN renal
BT-549 breast = system: BT-549 breast
CAKI-1 renal = system: CAKI-1 renal
CCRF-CEM leukemia = system: CCRF-CEM leukemia
COLO 205 colon = system: COLO 205 colon
DU-145 prostate = system: DU-145 prostate
EKVX NSCLC = system: EKVX NSCLC
HCC-2998 colon = system: HCC-2998 colon
HCT-116 colon = system: HCT-116 colon
HCT-15 colon = system: HCT-15 colon
HL-60(TB) leukemia = system: HL-60(TB) leukemia
HOP-62 NSCLC = system: HOP-62 NSCLC
HOP-92 NSCLC = system: HOP-92 NSCLC
HS 578T breast = system: HS 578T breast
HT29 colon = system: HT29 colon
IGROV1 ovarian = system: IGROV1 ovarian
K-562 leukemia = system: K-562 leukemia
KM12 colon = system: KM12 colon
LOX IMVI melanoma = system: LOX IMVI melanoma
M14 melanoma = system: M14 melanoma
MALME-3M melanoma = system: MALME-3M melanoma
MCF7 breast = system: MCF7 breast
MDA-MB-231 breast = system: MDA-MB-231 breast
MDA-MB-435 melanoma = system: MDA-MB-435 melanoma
MDA-MB-468 breast = system: MDA-MB-468 breast
MOLT-4 leukemia = system: MOLT-4 leukemia
NCI-H226 lung = system: NCI-H226 lung
NCI-H23 lung = system: NCI-H23 lung
NCI-H322M lung = system: NCI-H322M lung
NCI-H460 NSCLC = system: NCI-H460 NSCLC
NCI-H522 lung = system: NCI-H522 lung
NCI/ADR-RES ovarian = system: NCI/ADR-RES ovarian
OVCAR-3 ovarian = system: OVCAR-3 ovarian
OVCAR-4 ovarian = system: OVCAR-4 ovarian
OVCAR-5 ovarian = system: OVCAR-5 ovarian
OVCAR-8 ovarian = system: OVCAR-8 ovarian
PC-3 prostate = system: PC-3 prostate
RPMI-8226 leukemia = system: RPMI-8226 leukemia
SF-268 CNS = system: SF-268 CNS
SF-295 CNS = system: SF-295 CNS
SF-539 CNS = system: SF-539 CNS
SK-MEL-2 melanoma = system: SK-MEL-2 melanoma
SK-MEL-28 melanoma = system: SK-MEL-28 melanoma
SK-MEL-5 melanoma = system: SK-MEL-5 melanoma
SK-OV-3 ovarian = system: SK-OV-3 ovarian
SN12C renal = system: SN12C renal
SNB-19 CNS = system: SNB-19 CNS
SNB-75 CNS = system: SNB-75 CNS
SR leukemia = system: SR leukemia
SW-620 colon = system: SW-620 colon
T-47D breast = system: T-47D breast
TK-10 renal = system: TK-10 renal
U251 glioblastoma = system: U251 glioblastoma
UACC-257 melanoma = system: UACC-257 melanoma
UACC-62 melanoma = system: UACC-62 melanoma
UO-31 renal = system: UO-31 renal

Q: CO[C@H]1C[C@@H]2CC[C@@H](C)[C@@](O)(O2)C(=O)C(=O)N2CCCC[C@H]2C(=O)O[C@H]([C@H](C)C[C@@H]2CC[C@@H](OCCO)[C@H](OC)C2)CC(=O)[C@H](C)C=C(C)[C@@H](O)[C@@H](OC)C(=O)[C@H](C)C[C@H](C)/C=C/C=C/C=C1C was tested. Which GI50 ([…]-0 renal) did it give?
A: 0.777 µM

Q: And the TGI (786-0 renal)?
A: 21.1 µM

Q: And the GI50 (A498 renal)?
A: < 0.0276 µM

Q: What about the TGI (A498 renal) of the same compound?
A: 17.4 µM

Q: What about the TGI (A549 NSCLC) of the same compound?
A: 20 µM

Q: What about the GI50 (ACHN renal) of the same compound?
A: 2.93 µM

Q: And the TGI (ACHN renal)?
A: 22.2 µM

Q: And the TGI (BT-549 breast)?
A: 15.6 µM

Q: And the GI50 (CAKI-1 renal)?
A: 5.67 µM

Q: What about the TGI (CAKI-1 renal) of the same compound?
A: 21.4 µM

Q: And the GI50 (CCRF-CEM leukemia)?
A: < 0.01 µM

Q: What about the TGI (CCRF-CEM leukemia) of the same compound?
A: 2.84 µM

Q: And the GI50 (COLO 205 colon)?
A: 14.6 µM

Q: What about the TGI (COLO 205 colon) of the same compound?
A: 27.7 µM

Q: And the GI50 (DU-145 prostate)?
A: 7.21 µM

Q: What about the TGI (DU-145 prostate) of the same compound?
A: 23.4 µM

Q: And the GI50 (EKVX NSCLC)?
A: 1.79 µM

Q: And the TGI (EKVX NSCLC)?
A: 20.4 µM

Q: And the GI50 (HCC-2998 colon)?
A: 7.55 µM

Q: What about the TGI (HCC-2998 colon) of the same compound?
A: 22.9 µM

Q: And the GI50 (HCT-116 colon)?
A: 8.33 µM

Q: And the TGI (HCT-116 colon)?
A: 21.9 µM

Q: What about the GI50 (HCT-15 colon) of the same compound?
A: 1.43 µM

Q: And the TGI (HCT-15 colon)?
A: 18.7 µM

Q: And the GI50 (HL-60(TB) leukemia)?
A: 2.16 µM

Q: What about the TGI (HL-60(TB) leukemia) of the same compound?
A: 6.09 µM

Q: And the GI50 (HOP-62 NSCLC)?
A: 0.548 µM

Q: What about the TGI (HOP-62 NSCLC) of the same compound?
A: 20.7 µM

Q: And the GI50 (HOP-92 NSCLC)?
A: 11.2 µM

Q: And the TGI (HOP-92 NSCLC)?
A: 23.4 µM

Q: What about the TGI (HS 578T breast) of the same compound?
A: 7.24 µM

Q: And the GI50 (HT29 colon)?
A: 11.5 µM

Q: What about the TGI (HT29 colon) of the same compound?
A: 23.7 µM

Q: And the GI50 (IGROV1 ovarian)?
A: < 0.01 µM

Q: And the TGI (IGROV1 ovarian)?
A: 11.2 µM

Q: What about the GI50 (K-562 leukemia) of the same compound?
A: 2.04 µM

Q: What about the TGI (K-562 leukemia) of the same compound?
A: 15.3 µM

Q: And the GI50 (KM12 colon)?
A: 11.2 µM

Q: What about the TGI (KM12 colon) of the same compound?
A: 23.3 µM

Q: And the GI50 (LOX IMVI melanoma)?
A: 6.02 µM

Q: What about the TGI (LOX IMVI melanoma) of the same compound?
A: 20.9 µM

Q: And the GI50 (M14 melanoma)?
A: 12.1 µM

Q: What about the TGI (M14 melanoma) of the same compound?
A: 24.5 µM

Q: And the GI50 (MALME-3M melanoma)?
A: < 0.01 µM

Q: And the TGI (MALME-3M melanoma)?
A: 14.6 µM

Q: What about the GI50 (MCF7 breast) of the same compound?
A: < 0.0154 µM

Q: And the TGI (MCF7 breast)?
A: 12.9 µM

Q: And the GI50 (MDA-MB-231 breast)?
A: 12.5 µM

Q: What about the TGI (MDA-MB-231 breast) of the same compound?
A: 25.1 µM

Q: What about the GI50 (MDA-MB-435 melanoma) of the same compound?
A: 16.2 µM

Q: And the TGI (MDA-MB-435 melanoma)?
A: 29.9 µM

Q: And the GI50 (MDA-MB-468 breast)?
A: < 0.01 µM

Q: And the TGI (MDA-MB-468 breast)?
A: 8.91 µM

Q: What about the GI50 (MOLT-4 leukemia) of the same compound?
A: < 0.01 µM

Q: What about the TGI (MOLT-4 leukemia) of the same compound?
A: 2.24 µM

Q: What about the GI50 (NCI-H226 lung) of the same compound?
A: 9.49 µM

Q: What about the TGI (NCI-H226 lung) of the same compound?
A: 21.8 µM

Q: And the GI50 (NCI-H23 lung)?
A: 11.6 µM

Q: And the TGI (NCI-H23 lung)?
A: 23.9 µM

Q: What about the GI50 (NCI-H322M lung) of the same compound?
A: 6.97 µM

Q: What about the TGI (NCI-H322M lung) of the same compound?
A: 22.1 µM

Q: What about the GI50 (NCI-H460 NSCLC) of the same compound?
A: 0.377 µM

Q: And the TGI (NCI-H460 NSCLC)?
A: 18.7 µM

Q: What about the GI50 (NCI-H522 lung) of the same compound?
A: 9.37 µM

Q: What about the TGI (NCI-H522 lung) of the same compound?
A: 22 µM

Q: What about the GI50 (NCI/ADR-RES ovarian) of the same compound?
A: 13.5 µM

Q: And the TGI (NCI/ADR-RES ovarian)?
A: 28.7 µM

Q: And the GI50 (OVCAR-3 ovarian)?
A: 4.68 µM

Q: And the TGI (OVCAR-3 ovarian)?
A: 21.8 µM

Q: What about the GI50 (OVCAR-4 ovarian) of the same compound?
A: 10.8 µM

Q: What about the TGI (OVCAR-4 ovarian) of the same compound?
A: 24.1 µM

Q: And the GI50 (OVCAR-5 ovarian)?
A: 15.2 µM

Q: And the TGI (OVCAR-5 ovarian)?
A: 29.1 µM

Q: And the GI50 (OVCAR-8 ovarian)?
A: 10.9 µM

Q: And the TGI (OVCAR-8 ovarian)?
A: 22.8 µM

Q: And the GI50 (PC-3 prostate)?
A: 0.549 µM

Q: And the TGI (PC-3 prostate)?
A: 17.7 µM

Q: And the GI50 (RPMI-8226 leukemia)?
A: < 0.01 µM

Q: And the TGI (RPMI-8226 leukemia)?
A: 1.87 µM

Q: And the GI50 (SF-268 CNS)?
A: 12.6 µM

Q: And the TGI (SF-268 CNS)?
A: 25.3 µM

Q: What about the TGI (SF-295 CNS) of the same compound?
A: 16 µM

Q: And the GI50 (SF-539 CNS)?
A: 3.06 µM

Q: And the TGI (SF-539 CNS)?
A: 19.7 µM

Q: What about the GI50 (SK-MEL-2 melanoma) of the same compound?
A: 14.2 µM

Q: What about the TGI (SK-MEL-2 melanoma) of the same compound?
A: 27.2 µM

Q: And the GI50 (SK-MEL-28 melanoma)?
A: 11.9 µM

Q: What about the TGI (SK-MEL-28 melanoma) of the same compound?
A: 16.5 µM

Q: What about the GI50 (SK-MEL-5 melanoma) of the same compound?
A: 0.414 µM

Q: And the TGI (SK-MEL-5 melanoma)?
A: 3.78 µM

Q: What about the GI50 (SK-OV-3 ovarian) of the same compound?
A: 12.1 µM

Q: And the TGI (SK-OV-3 ovarian)?
A: 25.4 µM

Q: And the GI50 (SN12C renal)?
A: 11.7 µM

Q: And the TGI (SN12C renal)?
A: 24.2 µM

Q: And the GI50 (SNB-19 CNS)?
A: 12.8 µM

Q: What about the TGI (SNB-19 CNS) of the same compound?
A: 25.5 µM

Q: And the GI50 (SNB-75 CNS)?
A: 0.124 µM

Q: What about the TGI (SNB-75 CNS) of the same compound?
A: 4.55 µM

Q: And the GI50 (SR leukemia)?
A: < 0.01 µM

Q: What about the TGI (SR leukemia) of the same compound?
A: 1.3 µM

Q: What about the GI50 (SW-620 colon) of the same compound?
A: 11.8 µM

Q: And the TGI (SW-620 colon)?
A: 16.4 µM

Q: And the TGI (T-47D breast)?
A: 16.2 µM

Q: And the GI50 (TK-10 renal)?
A: 13.6 µM

Q: What about the TGI (TK-10 renal) of the same compound?
A: 31 µM

Q: And the GI50 (U251 glioblastoma)?
A: 5.77 µM

Q: And the TGI (U251 glioblastoma)?
A: 21.1 µM

Q: And the GI50 (UACC-257 melanoma)?
A: 16.5 µM

Q: What about the TGI (UACC-257 melanoma) of the same compound?
A: 30.1 µM

Q: What about the GI50 (UACC-62 melanoma) of the same compound?
A: 6.61 µM

Q: And the TGI (UACC-62 melanoma)?
A: 14.9 µM

Q: And the GI50 (UO-31 renal)?
A: < 0.01 µM
